Patent publication US20060183221A1, “Method for neural differentiation of embryonic stem cells using protease passaging techniques” (priority 2003, published 2006)

Assays:
[1] = tested on: differentiating mouse ES cells (ES-J1); experiment: Apoptosis (TUNEL staining) in differentiating mouse ES cells incubated with ceramide analogs; format: cell-based; settings: 15 hours with 75 μM S16 or S18, or 35 μM C2-ceramide
Protocol: In vitro neural differentiation of mouse ES cells (ES-J1, ES-D3) followed a serum deprivation protocol as described previously (Hancock, et al., 2000, Biochem. Biophys. Res. Commun. 271: 418-421). The differentiation stages are outlined in FIG. 2. Briefly, ES cells were grown on gamma-irradiated feeder fibroblasts for four days in Knockout DMEM/15% Knockout serum replacement, supplemented with ESGRO (LIF; Chemicon; Cat No. ESG1106) at a concentration of […] medium. ES cells were then grown for another four days on gelatin-coated bacterial culture dishes without a fibroblast feeder layer, and were then grown for three days in Knockout DMEM/15% heat-inactivated ES qualified Fetal Bovine Serum, supplemented with 10^3 units LIF per ml of medium. Upon trypsinization, ES cells were transferred to bacterial culture dishes without gelatin, and embryoid body (EB) formation was induced for four days in Knockout DMEM/10% heat-inactivated ES qualified FBS without LIF (EB4 stage). On the fifth day, floating and loosely attached EBs were rinsed off and transferred to tissue culture dishes. The EBs were allowed to attach to the tissue culture dish surface by incubation for another 24 hours in Knockout DMEM with 10% heat-inactivated ES qualified fetal bovine serum. Neural differentiation due to serum deprivation was induced by cultivation of the EBs for three days in DMEM/F12 (50/50), supplemented with 1×N2 (Invitrogen/Life Technologies; Cat No. 17502, dilution of 1: 100) but without serum (EB8 stage). Serum-deprived EBs were then trypsinized, plated on poly-L-ornithine/laminin-coated tissue culture dishes and grown for four days in DMEM/F12 (50/50), supplemented with N2 and 10 ng/ml FGF-2, but without serum. his incubation period is referred to as neuroprogenitor (NP) stage due to commitment of neuroepithelial precursor cells to neuroprogenitor cells. These cells have committed during the EB stages and were expanded during the NP stage. NPs grown for 48 hours upon replating of trypsinized EBs were referred to as the NP2 stage. On the fifth day of NP formation, the medium was changed to Neurobasal (Invitrogen/Life Technologies; Cat No. 21103-049), with 5% heat-inactivated FBS, and the cells were incubated for another seven days. During this time, NPs fully differentiate to glial cells and neurons. Cells cultured for 24 hours or 96 hours upon changing the medium were referred to as the D1 or D4 stage, respectively.
ES cells were cultured and differentiated to the EB4, EB8, NP2, or D4 stage following the protocol as described above. The ceramide analog S18 was dissolved in ethanol at a concentration of 100 mM and then added to the cells at a final concentration of 75 μM in medium. The cells at the EB8 stage were incubated for 48 hours in the presence of the ceramide analog and were then transplanted into mouse brains.
Differentiating ES cells were grown on cover slips and fixed with 4% paraformaldehyde in phosphate-buffered saline (PBS). Fixed cells were permeabilized with 0.5% Triton X-100 in PBS for 5 minutes at room temperature and unspecific binding sites were saturated by incubation with 3% ovalbumin in PBS for 1 hour at 37° C. The cover slips were then incubated with 5 μg/ml primary antibody (anti-ceramide clone 15B4 mouse IgM, Alexis; anti-PAR-4 rabbit IgG, Santa Cruz; anti-PCNA rabbit IgG, Santa Cruz; anti-nestin clone 401 rat IgG, BD Pharmingen) in 0.1% ovalbumin/PBS, followed by incubation with the appropriate fluorescence-labeled secondary antibody (5 μg/ml Alexa 546 conjugated anti-mouse IgG, Molecular Probes; Alexa 488 conjugated anti-rabbit IgG, Molecular Probes, Cy3 conjugated anti-mouse IgM, Jackson) for 2 hours at 37° C. The nuclei were stained by treatment with 2 μg/ml Hoechst 33258 in PBS for 30 minutes at room temperature. Apoptotic nuclei were stained using the fluorescein FragEL TUNEL assay (Oncogene) according to the manufacturer's instructions. […]

[2] = tested on: SSEA4 selected HESCs; experiment: Differentiation of SSEA4 selected HESCs as serum free embryoid bodies in differing media formulations (cytospin counts, immunostaining); format: cell-based, human; settings: L-proline conditions
Protocol: Serum free embryoid bodies were cultured in suspension for 3 weeks. Morphological differences were apparent between the cultures. […] Serum free embryoid bodies were cultured in suspension, and were cut into pieces, seeded onto polyornithine/laminin coated slides at day 21 and fixed at day 25. […] This was indicative that this differentiation protocol utilizes an intrinsic neural differentiation capacity of HESC, rather than exogenous neural inducing factors.
Cytospins of disaggregated serum free embryoid bodies were performed at day 21 to enable the counting of the proportion of βIII-Tubulin or TH positive cells generated in the different media formulations. […]
To count proportions of neurons in serum free embryoid bodies, cytospins were immunostained with anti-βIII-Tubulin (Sigma, #T8660) or mouse anti-TH monoclonal antibodies (PeIFreez Biologicals, #P80101-0), detected with alexa-488 conjugated anti-mouse secondary antibody and nuclei were stained with DAPI. Two color fluorescent images were taken under 10× magnification and merged, and double positive signals were scored as neuronal cell bodies, or TH+ neuronal cell bodies against the total nuclei count. A minimum of three randomly sampled fields and 250 or 100 nuclei for βIII-Tubulin or TH, respectively, were counted for each condition. […]

[3] = tested on: SSEA4 selected HESCs
From the text: Essentially serum free embryoid bodies were generated from bulk passaged monolayer HESC colonies as described in Example 6, in the presence of the media set out below.

[4] = tested on: SSEA4 selected HESCs; settings: 4 ng/ml FGF2 and 100 μM proline
Protocol: Essentially serum free embryoid bodies were generated from bulk passaged monolayer HESC colonies as described in Example 6, in the presence of 4 ng/ml FGF2 and 100 μM Proline, or in 4 ng/ml FGF2 with MEDII conditioned medium as a positive control.
Serum free embryoid bodies were cultured in suspension for 17 days, and were cut into pieces and seeded onto polyornithine/laminin coated slides at day 10 or 17. The explants were cultured on slides for 5 days prior to fixation at day 15 or 22, for immunostaining with anti-βIII-Tubulin and anti-Tyrosine Hydroxylase antibodies.

[5] = tested on: Mouse neuroblastoma (F-11) cells; experiment: Induction of apoptosis in mouse neuroblastoma cells (Hoechst 33258 staining of condensed nuclei); format: cell-based; settings: 24 hours
Protocol: Mouse neuroblastoma (F-11) cells were incubated for 24 hours in 0.1, 0.2, 0.5, or 1.0 μM of laurylgallate (Aldrich). Apoptosis was determined by punctate staining of condensed nuclei with Hoechst 33258 (Sigma, […] medium for 30 minutes at room temperature).

[6] = tested on: SSEA4 selected HESCs; experiment: Neural differentiation of SSEA4 selected bulk passaged HESCs as serum free embryoid bodies with or without MEDII and S18, seeded and immunostained; format: cell-based, human
Protocol: Cultures were treated with or without 10 μM S18 from day 13 to day 17. After S18 treatment, serum free embryoid bodies were washed several times and cultured further until day 18. Serum free embryoid bodies were cut into pieces to seed down to polyornithine/laminin coated slides.
In the presence of MEDII, a consistently high proportion of the culture contained TH+ neurons, with the background of non-neural regions that was negative for the neuronal marker βIII-Tubulin typically lower than 10%. It was not determined whether the effect of MEDII induced more efficient neuralization or inhibited the generation of non-neural cell types. […] This proportion was determined by analysis of double staining of neural extensions for βIII-Tubulin and TH (FIG. 18), and overlaying Hoffman images with TH immunofluorescence (FIG. 19). The increase in the proportion of TH+ neurons in MEDII treated differentiations appeared to be due to the overall increase in neuronal differentiation, rather than an effect on the proportion of neurons that were dopaminergic, because the proportions of neurons that were TH+ in differentiations not exposed to MEDII was equally high. Another marker of DA cells, VMAT, was expressed in similarly high proportions of cells within the sfEBM cultures. TH+/VMAT−, TH−/VMAT+ and TH+/VMAT+ cells were observed (FIG. 20), possibly indicating temporal variability in the induction of expression of these markers prior to being co-expressed.

## CCCCCCCCCCCCCCCC(=O)NC(CO)CO [S16, N-(2-hydroxy-1-(hydroxymethyl)ethyl)-palmitoylamide]
[1]; EB8 stage
  TUNEL stained cells: 45±10%
[1]; NP2 stage
  TUNEL stained cells: 70±10%

## O=C(O)[C@@H]1CCCN1 [proline, L-proline]
[2]
  TH+ neurons, of the cells in an embryoid body in suspension: greater than 50%
[3]; 50 μM L-proline
  maintained in a proliferative state after proliferation of neural rosette structures: 34 weeks
  maintained in a proliferative state in suspension culture after initial derivation: more than 7 weeks
[3]; 50 μM Proline condition, around 3 weeks
  appearance of sfEBPs with low cell death and distinct neural rosette structures/folds: noticeably enhanced
[4]
  seeded EB pieces that did not exhibit large networks of βIII-Tubulin+ cells: less than 30%
[4]; day 22
  neurons generated that were dopaminergic (co-expressing βIII-Tubulin and TH): greater than 90%

## CCCCCCCCCCCCOC(=O)c1cc(O)c(O)c(O)c1 [laurylgallate, n-dodecyl ester of 3,4,5-trihydroxybenzoic acid]
[5]; 0.5 μM
  cells undergoing apoptosis: 50%
[5]; 1.0 μM
  cells undergoing apoptosis: 100%

## CCCCCCCCCCCCC/C=C/[C@@H](O)[C@H](CO)NC(C)=O [C2-ceramide, N-acetyl sphingosine, reference compound]
[1]; EB8 stage
  TUNEL stained cells: 45±10%
[1]; NP2 stage
  TUNEL stained cells: 70±10%

## FGF2: fibroblast growth factor 2
[6]; 10 μM S18 day 13 to 17, seeded day 18, fixed day 23
  area of seeded serum free embryoid body containing TH+ neurons: 30-70%
[6]; βIII-Tubulin/TH double staining, seeded day 18, fixed day 23
  proportion of neurons expressing TH: very high proportion
